Legend:
U2OS cells = assay: Toxicity in U2OS cells; type: cell-based; conditions: after 24 h
Experimental: Figure 4 FRAP assay using U2OS cells transfected with GFP–BRD9. (a) Recovery half times of wild-type (wt) cells treated with DMSO in the absence or presence of 2.5 μM SAHA or treated with 1 at 1 μM and SAHA as indicated. In addition, cells expressing GFP–BRD9 with a BD-inactivating mutation (N100F) were analyzed. Significant differences relative to cells treated with SAHA (p < 0.0001) are shown by ****. (b) Time dependence of fluorescence recovery in the bleached area of cells expressing wt or mutant GFP–BRD9 with the corresponding treatments shown in (a). (c) Recovery half times of cells expressing wt GFP–BRD9 treated with various concentrations of DMSO and 2 in the presence or absence of SAHA as indicated. Cells expressing the GFP–BRD9 mutant (N100F) were treated as indicated. Significant differences relative to cells treated with SAHA (p < 0.0001) are shown by ****. (d) Time dependence of fluorescence recovery in the bleached area of cells expressing wt or mutant GFP–BRD9 with the corresponding treatments shown in (c). Curves represent averaged data of at least 20 replicates. […] The N100F construct is a negative control BRD9 mutant in which Asn100 is replaced by Phe100 and therefore acetylated histone cannot bind because of the lack of interaction to the anchor Asn and because of steric hindrance. […]

Aqueous solubility = type: physicochemical; conditions: aqueous McIlvaine buffer, pH 6.8
Experimental: (§1) this tumor mouse model body weight changes can occur due to increased tumor load or due to […]
(§2) Determination of physicochemical and in vitro DMPK parameters […]
(§3) diluted with aqueous McIlvaine buffer at pH 6.8, or with acetonitrile/water (1:1) as a reference. Samples were shaken for 24 h at room temperature in 96-well plates (Whatman Uniplate® 96 wells, 750 µL, polypropylene, round bottom). The plate was then centrifuged at 3,000 rpm for 2 min. 250 µL of each sample were transferred to a Millipore MultiScreenHTS filter plate with a polycarbonate membrane, pore size 0.45 μm. Filtrates were collected by centrifugation at 3,000 rpm for 2 min. The dissolved concentrations were determined by UPLC/UV on a Waters ACQUITY UPLC® SQD system equipped with a Waters ACQUITY UPLC® BEH 2.1x50 mm C18 column, particle size 1.7 µm, using a short gradient with water/0.1% formic acid as solvent A and acetonitrile/0.1 % formic acid as solvent B (5 to 95 % B with 1.7 min total cycle time). Compound signals were measured with a photodiode array UV detector operated at 254 nm. Solubility was determined with a one point calibration by comparing peak areas relative to the reference standard using Waters Empower software. […]

[1] = Hepatocytes predicted clearance, mouse; type: in vitro ADME
Experimental: as §1, §2, §3
(§4) In vitro plasma protein binding (PPB) was determined by a semi-automated equilibrium dialysis assay on a Tecan robotic system at a test compound concentration of 3 µM. […]

[2] = Hepatocytes predicted clearance, rat; type: in vitro ADME
Experimental: as §1, §2, §3, §4

[3] = Hepatocytes predicted clearance, human; type: in vitro ADME
Experimental: as §1, §2, §3, §4

[4] = type: in vivo; conditions: Mouse 5 mg/kg i.v. bolus
Source text: Mice were housed under pathogen-free conditions (AAALAC accredited facility) and treated according to the institutional, governmental and European Union guidelines (GV-SOLAS, Felasa, Austrian Animal Protection Laws). All animal studies were reviewed and approved by the internal ethics committee of Boehringer Ingelheim and the local governmental committee (Amt der Wiener Landesregierung, Magistratsabteilung 58, Vienna, Austria).
Pharmacokinetic and efficacy studies in mice […]
Following injection of the cells animals were randomized based on body weight (n=10/group). […] All doses were calculated relative to the mouse body weight on the treatment day. […]
body weight loss. Tumour load was measured 2-3 times weekly based on bioluminescence imaging as described previously. […]
1x10^6 cells/mL were incubated and continuously shaken in a Thermo Scientific Cytomat™ for 4 h at 85-95% relative humidity and 5-10% CO2 at 37 °C. Aliquots were taken from the medium at 0, 0.5, 1, 1.5, 2.5 und 4 h and concentrations of the test compounds quantified by HPLC/MS/MS on a BIOCIUS Life Sciences RapidFire® system coupled to a Thermo Scientific™ TSQ Vantage™ triple-quadrupole mass spectrometer. Predicted clearances were calculated using the well-stirred model.
as §4

[5] = 1 week tolerability study in non-tumor-bearing CIEA-NOG mice; type: in vivo; conditions: 180 mg/kg, continuous daily dosing, female CIEA-NOG mice
[6] = Disseminated EOL-1 AML mouse model; type: in vivo; conditions: female, CIEA-NOG, po, 180 mg/kg p.o., plasma, last day of treatment
[7] = set-up: method as in earlier work; conditions: cited from earlier work

Structure (SMILES)	toxicity in U2OS cells (U2OS cells)	solubility at 24 h (Aqueous solubility) [µg/mL]	Hepatocytes pred. CL mouse [1] [% QH]	Hepatocytes pred. CL rat [2] [% QH]	Hepatocytes pred. CL human [3] [% QH]	plasma CL [4] [% QH]	tolerability [5]	AUC(0-t) [6] [µM·h]	membrane permeability [7] [nM/s]
COc1cc(-c2cn(C)c(=O)c3cnccc23)cc(OC)c1CN(C)C [Compound 1, n1cc2c(cc1)C(=CN(C2=O)C)c1cc(c(c(c1)OC)CN(C)C)OC]	no toxicity	> 91	58	< 7	17	57	–	–	–
COc1cc(-c2cn(C)c(=O)c3cnccc23)c(OC)cc1CN(C)C [Compound 2, 4-{4-[(Dimethylamino)methyl]-2,5-dimethoxyphenyl}-2-methyl-1,2-dihydro-2,7-naphthyridin-1-one]	no toxicity	> 90	56	17	17	65	well-tolerated	268	–
CCn1cc(-c2cccc(C(F)(F)F)c2)c2sc(C(=N)NC3CCS(=O)(=O)CC3)cc2c1=O [I-BRD9]	–	–	–	–	–	–	–	–	210
